Experiments:
[1] = Water solubility of labeling compounds before (zwitterion type) and after (double salt type) salt formation; format: physicochemical; conditions: for solubility: water, zwitterion type
Description: The above-obtained Compound 17 (100 mg, 0.11 mmol) was dissolved in methanol (2 ml) and the solution was added with a solution of sodium iodide (1 g, 6.7 mmol) in methanol (5 ml). The methanol solution was concentrated to a half of the volume and cooled to 4° C. overnight. The precipitated crystals were collected by filtration. The obtained green crystals were dried in a vacuum desiccator to give Compound 18 (labeling compound of the formula (V), 85 mg, yield 72%). Data of water-solubility and infrared absorption spectrum data (IR) were obtained before the formation of the salt with sodium iodide (zwitterion type) and after the salt formation. The iodide content was determined by the Schoniger method.
Indocyanine green-N-butanoic acid sulfosuccinimide ester (Compound 19) was prepared according to the method of Example 3. Compound 19 (150 mg, 0.17 mmol) was dissolved in methanol (3 ml) and the solution was added with a solution of sodium iodide (1.5 g, 10 mmol) in methanol (8 ml). The methanol was concentrated to a half of the volume and the concentrate was cooled to 4° C. overnight. The precipitated crystals were collected by filtration. The obtained green crystals were dried in a vacuum desiccator to give Compound 20 (labeling compound of the formula (V), 117 mg, yield 66%). Data of water-solubility and infrared absorption spectra data (IR) were obtained before and after the salt formation with sodium iodide. Iodine content was determined by the Schoniger method.
Indocyanine green-N-hexanoic acid sulfosuccinimide ester (Compound 21) was prepared according to the method of Example 3. Compound 21 (100 mg, 0.11 mmol) was dissolved in methanol (2 ml) and the solution was added with a solution of sodium perchlorate (0.3 g, 2.5 mmol) in methanol (20 ml). The methanol was concentrated to a quarter of the volume under reduced pressure and the concentrate was cooled to 4° C. overnight. The precipitated crystals were collected by filtration. The obtained green crystals were dried in a vacuum desiccator to give Compound 22 (labeling compound of the formula (V), 23 mg, yield 21%). Data of water-solubility and IR were obtained before and after the salt formation with sodium perchlorate.

[2] = Fluorescence spectra of labeling compounds; format: physicochemical
Description: Compound 5 (40 mg, 64 μmol) in DMF (1 ml) was added with N-hydroxysuccinic anhydride (8.8 mg, 76 μmol) and N,N'-dicyclohexylcarbodiimide (DCC, 26.4 mg, 0.128 mmol) and the mixture was allowed to react at 4° C. overnight. Ether (10 ml) was added to the reaction mixture and the resulting residue was washed three times with ether. The solid mass was dissolved in chloroform (400 μl), and the solution was added with 0.1M aqueous hydrochloric acid (200 μl) and stirred. Then, the chloroform layer was separated and washed three times with water. The chloroform solution was concentrated under reduced pressure to obtain Compound 6 as black green solid (a labeling compound of the formula (III)) (38 mg, yield 78.5%). MS (FAB) m/e=720(M^+); Fluorescence spectra: λex =769 nm, λem =820 nm (10% DMSO in water).
Compound 5 (20 mg, 32 μmol) in DMF (1 ml) was added with sodium N-hydroxysuccinic anhydride sulfonate (8.3 mg, 38 μmol) and N,N'-dicyclohexylcarbodiimide (13.2 mg, 64 μmol), and the mixture was allowed to react at 4° C. overnight and then filtered. Ether (10 ml) was added to the filtrate and the resulting residue was washed three times with ether. The solid mass was dissolved in […] (400 μl), and the solution was added with 0.1M aqueous hydrochloric acid (200 μl) and stirred. Then, the chloroform layer was separated and washed three times with water. The chloroform solution was concentrated under reduced pressure to obtain Compound 7 as black green solid (labeling compound of the formula (III), 17 mg, yield 66.4%). MS (FAB) m/e=822 (M^+ Na); Fluorescence spectra λex =769 nm, λem =820 nm (10% DMSO in water).
Compound 5 (20 mg, 32 μmol) in DMF (0.5 ml) was added with N-(2-(N'-maleimide)ethyl)piperazine dihydrochloride (PEM, 4.4 mg, 38 μmol), triethylamine (TEA, 20 μl, 0.146 mmol) and DCC (10.2 mg, 49 μmol), and the mixture was allowed to react at 4° C. overnight. Ether (10 ml) was added to the reaction mixture and the resulting residue was washed three times with ether. The solid mass was dissolved in chloroform (400 μl), and the solution was added with 0.1M aqueous hydrochloric acid (200 μl) and stirred. Then, the chloroform layer was separated and washed three times with water. The chloroform solution was concentrated under reduced pressure to obtain Compound 8 as black green solid (labeling compound of the formula (III), 20 mg, yield 70.5%). MS (FAB) m/e=814(M^+); Fluorescence spectra λex =773 nm, λem =821 nm (10% DMSO in water).
Compound 6 (20 mg, 26.4 μmol) in DMF (0.5 ml) was added with hydrazine monohydrochloride (9.0 mg, 0.131 mmol) and the mixture was allowed to react overnight. The reaction mixture was filtered and the filtrate was concentrated under reduced pressure. The residue was dissolved in chloroform (0.5 ml) and the chloroform solution was washed with water three times. The chloroform layer was concentrated under reduced pressure to obtain Compound 9 as black green solid (16 mg, yield 90.0%). MS (FAB) m/e=637(M^+); Fluorescence spectra: λex =771 nm, λem =820 nm (10% DMSO in water).
Compound 12 (30 mg, 41.8 μmol) in a 50 v/v % aqueous solution of THF (1 ml) was added with sodium N-hydroxysuccinic anhydride-sulfonate (16.8 mg, 77.4 μmol) and N,N'-dicyclohexylcarbodiimide (25.8 mg, 0.125 mmol), and the mixture was allowed to react at 4° C. overnight and then filtered. The filtrate was concentrated under reduced pressure at a temperature of 20° C. or less. The residue was added with ethyl acetate (10 ml) and the deposited crystals were further washed with ether three times. These crystals were dissolved in water (200 μl) and purified using a Sephadex LH20 column (eluent: water) to obtain Compound 13 as black green solid (labeling compound of the formula (III), 34 mg, yield 88.8%). MS (FAB) m/e=892(M^-); Fluorescence spectrum λex =771 nm, λem =822 nm (water). […]

Fluorescence spectra λem ([2]; 10% DMSO in water) [nm] | Fluorescence spectra λex ([2]; 10% DMSO in water) [nm] | Compound | other results
820 | 771 | CC[N+]1=C(C=CC=CC=CC=C2N(CCCCCC(=O)NN)c3ccc4ccccc4c3C2(C)C)C(C)(C)c2c1ccc1ccccc21 [Compound 9] | 
820 | 769 | CC[N+]1=C(C=CC=CC=CC=C2N(CCCCCC(=O)ON3C(=O)CCC3=O)c3ccc4ccccc4c3C2(C)C)C(C)(C)c2c1ccc1ccccc21 [Compound 6] | 

Second part, the compound before the results:

Compound | Fluorescence spectra λem ([2]; 10% DMSO in water) [nm] | Fluorescence spectra λex ([2]; 10% DMSO in water) [nm] | other results
CC1(C)C(=CC=CC=CC=CC2=[N+](CCCCS(=O)(=O)[O-])c3ccc4ccccc4c3C2(C)C)N(CCCCCC(=O)ON2C(=O)CC(S(=O)(=O)O)C2=O)c2ccc3ccccc3c21 (stereo not shown) [Compound 18] |  |  | Water solubility ([1]; double salt type (sodium iodide)): 1 mg/0.8 ml
CC1(C)C(=CC=CC=CC=CC2=[N+](CCCCS(=O)(=O)[O-])c3ccc4ccccc4c3C2(C)C)N(CCCCCC(=O)ON2C(=O)CC(S(=O)(=O)O)C2=O)c2ccc3ccccc3c21 (stereo not shown) [Compound 21, Indocyanine green-N-hexanoic acid sulfosuccinimide ester] |  |  | solubility [1]: ≥ 100 µg/mL
CC1(C)C(=CC=CC=CC=CC2=[N+](CCCCS(=O)(=O)[O-])c3ccc4ccccc4c3C2(C)C)N(CCCCCC(=O)ON2C(=O)CC(S(=O)(=O)O)C2=O)c2ccc3ccccc3c21 (stereo not shown) [Compound 17, indocyanine green-N-hexanoic acid sulfosuccinimide ester] |  |  | Fluorescence spectra λem ([2]; water): 807 nm; Fluorescence spectra λex ([2]; water): 768 nm
CC[N+]1=C(C=CC=CC=CC=C2N(CCCCCC(=O)N3CCN(CCN4C(=O)C=CC4=O)CC3)c3ccc4ccccc4c3C2(C)C)C(C)(C)c2c1ccc1ccccc21 [Compound 8] | 821 | 773 | 
CC1(C)C(=CC=CC=CC=CC2=[N+](CCCCS(=O)(=O)[O-])c3ccc4ccccc4c3C2(C)C)N(CCCC(=O)ON2C(=O)CC(S(=O)(=O)O)C2=O)c2ccc3ccccc3c21 (stereo not shown) [Compound 19, Indocyanine green-N-butanoic acid sulfosuccinimide ester] |  |  | solubility [1]: ≥ 100 µg/mL
CC[N+]1=C(C=CC=CC=CC=C2N(CCCCCC(=O)ON3C(=O)CC(S(=O)(=O)O)C3=O)c3ccc4ccccc4c3C2(C)C)C(C)(C)c2c1ccc1ccccc21 (stereo not shown) [Compound 7] | 820 | 769 | 
CC1(C)C(=CC=CC=CC=CC2=[N+](CCCS(=O)(=O)[O-])c3ccc4ccccc4c3C2(C)C)N(CCCCCC(=O)ON2C(=O)CC(S(=O)(=O)O)C2=O)c2ccc3ccccc3c21 (stereo not shown) [Compound 13] |  |  | Fluorescence spectra λem ([2]; water): 822 nm; Fluorescence spectra λex ([2]; water): 771 nm
CC1(C)C(=CC=CC=CC=CC2=[N+](CCCCS(=O)(=O)[O-])c3ccc4ccccc4c3C2(C)C)N(CCCCCC(=O)ON2C(=O)CC(S(=O)(=O)O)C2=O)c2ccc3ccccc3c21 (stereo not shown) [Compound 22] |  |  | Water solubility ([1]; double salt type (sodium perchlorate)): 1 mg/5 ml
